Data published in PubChem BioAssay AID256 (DTP/NCI, 2004).
Where “and” joins values, the source holds several entries; their conditions need not be identical. Identical values can stand only once. Inconclusive results and toxic doses are left out.

System: CD2F1 mice, L1210 leukemia ip, survival T/C
Assay: NCI In Vivo Anticancer Drug Screen. Data for tumor model L1210 Leukemia (intraperitoneal) in CD2F1 (CDF1) mice
Settings: higher = longer survival
In short: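 Implant tumor; dose compound or vehicle; measure endpoint in both groups; report treated divided by control.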

[1] = endpoint: mean survival time, dose: 50.0 mg/kg/injection, schedule: Q01DX009 (ip), vehicle: saline with Tween-80
[2] = endpoint: mean survival time, dose: 100.0 mg/kg/injection, schedule: Q01DX001 (ip), vehicle: saline with Tween-80
[3] = endpoint: mean survival time, dose: 100.0 mg/kg/injection, schedule: Q04DX003 (ip), vehicle: saline with Tween-80
[4] = endpoint: mean survival time, dose: 200.0 mg/kg/injection, schedule: Q04DX003 (ip), vehicle: saline with Tween-80

Compound: CCN1/C(=C\c2ccc3cc(C)ccc3[n+]2CC)[Se]c2ccccc21
- T/C (endpoint: mean survival time, dose: 1.25 mg/kg/injection, schedule: Q01DX001 (ip), vehicle: other): 105 % of control
- T/C (endpoint: mean survival time, dose: 2.5 mg/kg/injection, schedule: Q01DX001 (ip), vehicle: other): 101 % of control
- T/C (endpoint: mean survival time, dose: 5.0 mg/kg/injection, schedule: Q01DX001 (ip), vehicle: other): 106 % of control

Compound: CCO/C=C/C(=O)NC(=O)NC1CC(CO)CC1O (centres undefined)
- T/C [1]: 97 % of control
- T/C (endpoint: mean survival time, dose: 100.0 mg/kg/injection, schedule: Q01DX009 (ip), vehicle: saline with Tween-80): 97 % of control
- T/C (endpoint: mean survival time, dose: 200.0 mg/kg/injection, schedule: Q01DX009 (ip), vehicle: saline with Tween-80): 105 % of control

Compound: CCCCOC(=O)c1ccc(NC(=O)Nc2cc([N+](=O)[O-])ccc2C)cc1
- T/C (endpoint: mean survival time, dose: 50.0 mg/kg/injection, schedule: Q01DX009 (ip), vehicle: Klucel (hydroxypropylcellulose) (HPC)): 101 % of control
- T/C (endpoint: mean survival time, dose: 100.0 mg/kg/injection, schedule: Q01DX009 (ip), vehicle: Klucel (hydroxypropylcellulose) (HPC)): 89 % of control
- T/C (endpoint: mean survival time, dose: 200.0 mg/kg/injection, schedule: Q01DX009 (ip), vehicle: Klucel (hydroxypropylcellulose) (HPC)): 104 % of control

Compound: Cc1c(C)c(C(=O)O)c(C)c(C)c1C(=O)O
- T/C (endpoint: mean survival time, dose: 100.0 mg/kg/injection, schedule: Q04DX003 (ip), vehicle: saline): 102 % of control
- T/C (endpoint: mean survival time, dose: 200.0 mg/kg/injection, schedule: Q04DX003 (ip), vehicle: saline): 100 % of control
- T/C (endpoint: mean survival time, dose: 400.0 mg/kg/injection, schedule: Q04DX003 (ip), vehicle: saline): 96 % of control

Compound: Cn1c(-c2ccccc2)nc2c(N)ncnc21
- T/C [2]: 93 % of control
- T/C (endpoint: mean survival time, dose: 400.0 mg/kg/injection, schedule: Q01DX001 (ip), vehicle: saline with Tween-80): 87 % of control

Compound: Cc1cccc(CC(F)F)c1
- T/C (endpoint: mean survival time, dose: 50.0 mg/kg/injection, schedule: Q04DX003 (ip), vehicle: saline with Tween-80): 109 % of control
- T/C [2]: 104 % of control
- T/C [3]: 97 % of control
- T/C (endpoint: mean survival time, dose: 200.0 mg/kg/injection, schedule: Q01DX001 (ip), vehicle: saline with Tween-80): 103 % of control
- T/C [4]: 96 % of control

Compound: Nc1nc2c(c(=O)[nH]1)N1CCN(c3ccc(C(=O)NC(CCC(=O)O)C(=O)O)cc3)CC1CN2 (centres undefined)
- T/C (endpoint: mean survival time, dose: 100.0 mg/kg/injection, schedule: Q01DX001 (ip), vehicle: sodium bicarbonate): 100 % of control
- T/C (endpoint: mean survival time, dose: 200.0 mg/kg/injection, schedule: Q01DX001 (ip), vehicle: sodium bicarbonate): 100 % of control
- T/C (endpoint: mean survival time, dose: 400.0 mg/kg/injection, schedule: Q01DX001 (ip), vehicle: sodium bicarbonate): 86 % of control

Compound: O=Cc1cc(Br)c(O)c(Br)c1
- T/C (endpoint: mean survival time, dose: 50.0 mg/kg/injection, schedule: Q01DX001 (ip), vehicle: Klucel (hydroxypropylcellulose) (HPC)): 97 % of control
- T/C (endpoint: mean survival time, dose: 100.0 mg/kg/injection, schedule: Q01DX001 (ip), vehicle: Klucel (hydroxypropylcellulose) (HPC)): 93 % of control
- T/C (endpoint: mean survival time, dose: 200.0 mg/kg/injection, schedule: Q01DX001 (ip), vehicle: Klucel (hydroxypropylcellulose) (HPC)): 97 % of control

Compound: COc1cc2ccc(/C=N/NC(N)=S)cc2cc1OC
- T/C (endpoint: mean survival time, dose: 25.0 mg/kg/injection, schedule: Q01DX009 (ip), vehicle: water): 94 % of control
- T/C (endpoint: mean survival time, dose: 50.0 mg/kg/injection, schedule: Q01DX009 (ip), vehicle: water): 98 % of control
- T/C (endpoint: mean survival time, dose: 100.0 mg/kg/injection, schedule: Q01DX009 (ip), vehicle: water): 102 % of control
- T/C (endpoint: mean survival time, dose: 200.0 mg/kg/injection, schedule: Q01DX009 (ip), vehicle: water): 93 % of control

Compound: CCCCC[CH2][Sn](=[O])[CH2]CCCCC
- T/C [3]: 100 % of control
- T/C [4]: 97 % of control
- T/C (endpoint: mean survival time, dose: 400.0 mg/kg/injection, schedule: Q04DX003 (ip), vehicle: saline with Tween-80): 111 % of control

Compound: CS(C)=O
- T/C (endpoint: mean survival time, dose: 46.87 mg/kg/injection, schedule: Q01DX009 (ip), vehicle: saline): 95 % of control
- T/C (endpoint: mean survival time, dose: 93.75 mg/kg/injection, schedule: Q01DX009 (ip), vehicle: saline): 100 % of control and 103 % of control
- T/C (endpoint: mean survival time, dose: 187.5 mg/kg/injection, schedule: Q01DX009 (ip), vehicle: saline): 100 % of control and 101 % of control
- T/C (endpoint: mean survival time, dose: 375.0 mg/kg/injection, schedule: Q01DX009 (ip), vehicle: saline): 95 % of control and 100 % of control
- T/C (endpoint: mean survival time, dose: 750.0 mg/kg/injection, schedule: Q01DX009 (ip), vehicle: saline): 97 % of control and 100 % of control
- T/C (endpoint: mean survival time, dose: 1500.0 mg/kg/injection, schedule: Q01DX009 (ip), vehicle: saline): 100 % of control
- T/C (endpoint: mean survival time, dose: 1.5 grams/kg/injection, schedule: Q01DX009 (ip), vehicle: saline): 87 % of control and 100 % of control
- T/C (endpoint: mean survival time, dose: 3.0 grams/kg/injection, schedule: Q01DX009 (ip), vehicle: saline): 95 % of control
- T/C (endpoint: mean survival time, dose: 6.0 grams/kg/injection, schedule: Q01DX009 (ip), vehicle: saline): 89 % of control and 100 % of control

Compound: COC(COC(=O)N1CCN(C=O)CC1)C1=C(N2CC2)C(=O)C(C)=C(N2CC2)C1=O (centres undefined)
- T/C (endpoint: median survival time, dose: 3.0 mg/kg/injection, schedule: Q01DX005 (ip), vehicle: saline): 168 % of control
- T/C (endpoint: median survival time, dose: 3.6 mg/kg/injection, schedule: Q01DX005 (ip), vehicle: saline): 160 % of control
- T/C (endpoint: median survival time, dose: 6.0 mg/kg/injection, schedule: Q01DX005 (ip), vehicle: saline): 190 % of control and 191 % of control
- T/C (endpoint: median survival time, dose: 12.0 mg/kg/injection, schedule: Q01DX005 (ip), vehicle: saline): 111 % of control

Compound: CC(=O)c1ccc(-c2ccccc2)cc1
- T/C (endpoint: mean survival time, dose: 100.0 mg/kg/injection, schedule: Q04DX003 (ip), vehicle: Klucel (hydroxypropylcellulose) (HPC)): 102 % of control
- T/C (endpoint: mean survival time, dose: 200.0 mg/kg/injection, schedule: Q04DX003 (ip), vehicle: Klucel (hydroxypropylcellulose) (HPC)): 103 % of control
- T/C (endpoint: mean survival time, dose: 400.0 mg/kg/injection, schedule: Q04DX003 (ip), vehicle: Klucel (hydroxypropylcellulose) (HPC)): 102 % of control

Compound: Oc1cc2c3c(c1)c1cc4c(cc1c[n+]3CC2)OCO4
- T/C (endpoint: mean survival time, dose: 3.13 mg/kg/injection, schedule: Q01DX009 (ip), vehicle: other): 115 % of control
- T/C (endpoint: mean survival time, dose: 3.13 mg/kg/injection, schedule: Q01DX009 (ip), vehicle: water): 124 % of control
- T/C (endpoint: mean survival time, dose: 12.5 mg/kg/injection, schedule: Q01DX009 (ip), vehicle: water): 122 % of control
- T/C (endpoint: mean survival time, dose: 25.0 mg/kg/injection, schedule: Q01DX009 (ip), vehicle: other): 115 % of control

Compound: CO[C@@]12[C@@H]3N[C@@H]3CN1C1=C(C(=O)C(NCCN3CCOCC3)=C(C)C1=O)[C@@H]2COC(N)=O
- T/C (endpoint: mean survival time, dose: 1.5 mg/kg/injection, schedule: Q01DX001 (ip), vehicle: water): 100 % of control
- T/C (endpoint: mean survival time, dose: 3.0 mg/kg/injection, schedule: Q01DX001 (ip), vehicle: water): 101 % of control
- T/C (endpoint: mean survival time, dose: 6.0 mg/kg/injection, schedule: Q01DX001 (ip), vehicle: water): 105 % of control
- T/C (endpoint: mean survival time, dose: 12.0 mg/kg/injection, schedule: Q01DX001 (ip), vehicle: water): 106 % of control
- T/C (endpoint: mean survival time, dose: 24.0 mg/kg/injection, schedule: Q01DX001 (ip), vehicle: water): 103 % of control

Compound: COc1ccc(C(=O)CCN2CCC(O)(c3ccccc3)CC2)cc1
- T/C (endpoint: mean survival time, dose: 12.5 mg/kg/injection, schedule: Q01DX009 (ip), vehicle: saline with Tween-80): 93 % of control
- T/C (endpoint: mean survival time, dose: 25.0 mg/kg/injection, schedule: Q01DX009 (ip), vehicle: saline with Tween-80): 97 % of control
- T/C [1]: 89 % of control

Compound: C/C=C1\C[C@@H]2C(OC)Nc3cc(O)c(OC)cc3C(=O)N2C1 (some centres undefined)
- T/C (endpoint: mean survival time, dose: 0.03 mg/kg/injection, schedule: Q01DX009 (ip), vehicle: saline): 103 % of control
- T/C (endpoint: mean survival time, dose: 0.03 mg/kg/injection, schedule: Q01DX009 (ip), vehicle: suspension in saline): 102 % of control
- T/C (endpoint: mean survival time, dose: 0.06 mg/kg/injection, schedule: Q01DX009 (ip), vehicle: saline): 104 % of control
- T/C (endpoint: mean survival time, dose: 0.06 mg/kg/injection, schedule: Q01DX009 (ip), vehicle: suspension in saline): 101 % of control
- T/C (endpoint: mean survival time, dose: 0.12 mg/kg/injection, schedule: Q01DX009 (ip), vehicle: saline): 109 % of control
- T/C (endpoint: mean survival time, dose: 0.12 mg/kg/injection, schedule: Q01DX009 (ip), vehicle: suspension in saline): 108 % of control
- T/C (endpoint: mean survival time, dose: 0.25 mg/kg/injection, schedule: Q01DX009 (ip), vehicle: saline): 106 % of control
- T/C (endpoint: mean survival time, dose: 0.25 mg/kg/injection, schedule: Q01DX009 (ip), vehicle: suspension in saline): 120 % of control
- T/C (endpoint: mean survival time, dose: 0.5 mg/kg/injection, schedule: Q01DX009 (ip), vehicle: saline): 118 % of control
- T/C (endpoint: mean survival time, dose: 0.5 mg/kg/injection, schedule: Q01DX009 (ip), vehicle: suspension in saline): 123 % of control
- T/C (endpoint: mean survival time, dose: 0.75 mg/kg/injection, schedule: Q04DX002 (ip), vehicle: saline): 106 % of control
- T/C (endpoint: mean survival time, dose: 1.0 mg/kg/injection, schedule: Q01DX009 (ip), vehicle: saline): 110 % of control
- T/C (endpoint: mean survival time, dose: 1.0 mg/kg/injection, schedule: Q01DX009 (ip), vehicle: suspension in saline): 92 % of control
- T/C (endpoint: mean survival time, dose: 1.5 mg/kg/injection, schedule: Q04DX002 (ip), vehicle: saline): 114 % of control
